{"source": "patent US6338296B1", "about": "“Release device for slowly releasing sprout inhibitor into packages of potatoes” (priority 1996, dated 2002)", "test_system": "potatoes", "experiment": "sprout inhibition in a ventilated package of potatoes with a pouch of silica gel carrying 1,4-DMN", "assay_type": "in vivo, potato", "text": "A package containing ten pounds of potatoes (approximately 5 kg) can be treated according to the instant invention with about 5 grams of silica gel contacted with 2 grams of 1,4-DMN. The substantially saturated silica gel may be placed in a pouch made of cotton fabric having a tight weave. The weave is sufficiently tight that the minute, generally less than 0.5 mm and often less than 0.2 mm, particles are retained in the fabric pouch.\nThe potatoes, in a plastic bag with numerous ventilation holes, may be allowed to be in a storage room without air conditioning. A single pouch may be placed in the bag with the potatoes.\nFor example, amounts of DMN from about 0.02 gram to about 1.0 gram per pound of potatoes (˜0.5 kg) may be effectively used. For various reasons, lower amounts are desirable, consistent with effectiveness for the amount of potatoes, volume of voids, length of residence time of the potatoes in the package and range of temperatures to be experienced."}
{"smiles": "Cc1ccc(C)c2ccccc12", "note": "[1,4-DMN, 1,4-dimethyl naphthalene]", "values": [{"measurement": "preclusion of sprouting", "setting": "0.2 grams of 1,4-DMN per one pound (~0.5 kg) of potatoes", "value": "adequately precludes sprouting"}, {"measurement": "sprouting after 30 days", "setting": "ten pounds of potatoes in ventilated plastic bag, one cotton pouch with about 5 grams silica gel and 2 grams 1,4-DMN, unconditioned store room, 30 days", "value": "No significant sprouting"}]}
